Earlier results in patent US20050037089A1, “Method for promoting bone growth” (priority 2003, published 2005).

**Q.** What does the source list for `CC[C@H](C)[C@H](NC(=O)[C@H](CCC(=O)O)NC(=O)[C@H](CO)NC(=O)[C@@H](NC(=O)[C@@H](N)CO)C(C)C)C(=O)N[C@@H](CCC(N)=O)C(=O)N[C@@H](CC(C)C)C(=O)N[C@@H](CCSC)C(=O)N[C@@H](Cc1cnc[nH]1)C(=O)N[C@@H](CC(N)=O)C(=O)N[C@@H](CC(C)C)C(=O)NCC(=O)N[C@@H](CCCCN)C(=O)N[C@@H](Cc1cnc[nH]1)C(=O)N[C@@H](CC(C)C)C(=O)N[C@@H](CC(N)=O)C(=O)N[C@@H](CO)C(=O)N[C@@H](CCSC)C(=O)N[C@@H](CCC(=O)O)C(=O)N[C@@H](CCCN=C(N)N)C(=O)N[C@H](C(=O)N[C@@H](CCC(=O)O)C(=O)N[C@@H](Cc1c[nH]c2ccccc12)C(=O)N[C@@H](CC(C)C)C(=O)N[C@@H](CCCN=C(N)N)C(=O)N[C@@H](CCCCN)C(=O)N[C@@H](CCCCN)C(=O)N[C@@H](CC(C)C)C(=O)N[C@@H](CCC(N)=O)C(=O)N[C@@H](CC(=O)O)C(=O)N[C@H](C(=O)N[C@@H](Cc1cnc[nH]1)C(=O)N[C@@H](CC(N)=O)C(=O)N[C@@H](Cc1ccccc1)C(=O)O)C(C)C)C(C)C` [hPTH(1-34)]?
**A.** bone formation (patients with osteoporosis, subcutaneous administration): increase bone formation; bone density (postmenopausal women, daily subcutaneous administration of 20 μg or 40 μg): increase bone density
